Experimental data published in patent US20160299149A1, “ASSAYS AND METHODS FOR CELL PROLIFERATION-TARGETED TREATMENT THERAPIES” (University of Central Florida Research Foundation, Inc., priority 2015, published 2016).
Read-outs that look alike come from different tables or passages of the source.

Columns and labels:
[1] = test system: MALME-3M cells and MALME-3 control cells; assay: Spermidine competition / percent viability with compound A; format: cell-based
Description: Aminoguanidine (AG) at 1 mM was determined to be non-toxic and was incubated with cells for 24 h prior to compound addition. Control represents the untreated cells. All experiments were performed in triplicate. Spermidine (Spd, 100 μM) was non-toxic to both cell lines. […] Compound A is a valid polyamine transport probe.

DFMO-treated cells = assay: Polyamine transport inhibitor assay 2: PTI blocks uptake of rescuing spermidine into DFMO-treated cells; format: cell-based
Description: FIG. 6A is a diagram showing an assay wherein the uptake of rescuing dose of spermidine into DFMO-treated cells is blocked by a PTI (GW 5074).
(§1) DFMO was dosed to give 50% relative viability versus an untreated control, i.e. DFMO is dosed at its IC50 value. Exogenous spermidine (Spd, 1 μM) is added to the DFMO treated cells and provided significant rescue of these cells to >80% viability depending upon the cell line. A successful PTI was able to block the entry of the spermidine rescuing agent into DFMO treated cells and result in a cell viability near the DFMO control (i.e. 50% viability). The inventors identified the following cell viabilities: DFMO only (50%), Spd only (100%), PTI (>90%), DFMO+Spd (>80%), DFMO+Spd+PTI (50%). The PTI provides a dose dependent lowering of cell viability in the presence of DFMO and a rescuing dose of spermidine. […] Identifying cells that respond to exogenous spermidine allow this assay to be possible and the c-myc and ATP13A3 biomarkers help predict these outcomes as well as the Vmax measurements for ^3H Spd import.

PanO2 derived tumors = assay: Histology (Ki67, cleaved caspase) of PanO2 derived tumors; format: in vivo; settings: PanO2 derived tumors in C57Bl/6 mice
Excerpt: FIG. 14 illustrates histological stained images of Ki67, a proliferation marker, and cleaved caspase in the presence of DFMO or DFMO+ the trimer44NMe PTI

amine oxidases = assay: Metabolic stability to amine oxidases; format: in vitro ADME, calf; settings: unmethylated compound judged without the protective aminoguanidine (AG)
Excerpt: (§2) Table 1 compares unmethylated Compound A (containing primary amine termini), and N-methylated Compound A (containing N-methyl termini). […] This is due to the presence of the terminal N-methyl groups in A.

MALME-3M cells = assay: Cytotoxicity IC50 in metastatic melanoma cells; format: cell-based
Excerpt: (§3) Graphical bars extending to the right of the 0 growth percent line indicates growth inhibition by compound A of those specific cell lines.

MALME-3 cells = assay: Cytotoxicity IC50 in matched control cells; format: cell-based; settings: in the presence of aminoguanidine (1 mM)
CHO cells = assay: PTS targeting: cytotoxicity IC50 in PTS-active cells; format: cell-based
Excerpt: as §2

CHO-MG* cells = assay: PTS targeting: cytotoxicity IC50 in PTS-deficient cells; format: cell-based
Excerpt: as §2

melanoma cell lines = assay: NCI 60-cancer cell screen; format: cell-based; settings: for sensitivity of MALME-3M in NCI 60-cancer cell screen: MALME-3M (low Cav-1 and high Cav-2)
Excerpt: as §3

L3.6pl cells [2] = assay: Assay 2 with GW5074 PTI in L3.6pl cells; format: cell-based, human; settings: 500 cells/well, 48 h at 37° C., 250 μM aminoguanidine
Description: as §1

L3.6pl pancreatic tumor = assay: Human L3.6pl pancreatic tumor in nude mice, combination with 1% DFMO; format: in vivo; settings: GW5074 1 mg/kg i.p. 5 days per week for 2 weeks, trimer44NMe equimolar (1.8 mg/kg), 1% DFMO in drinking water
Description: The extension of these findings is that cells which have high c-myc and ATP13A3 expression will be sensitive to the therapy described herein. These therapies were evaluated in vivo.
The first set of experiments was in nude mice (immune compromised) using human L3.6pl pancreatic cancer cells which have high ATP13A3 and high c-myc expression and high Vmax. […] Note TTI′ in FIGS. 12 and 13 refer to the polyamine-based trimer44NMe PTI compound.
0.5×10^6 L3.6pl tumor cells were injected into the pancreas of nude mice and allowed to grow for 1 week. 1% DFMO was administered in the drinking water (changed weekly) for 2 weeks. […] Mice were collected and pancreatic tissue/tumor, with spleen attached, was weighed.

[3] = test system: L3.6pl, Panc1, CHO and PanO2 cells; assay: Cell line sensitivity to DFMO and spermidine rescue challenge; format: cell-based
L3.6pl cells [4] = assay: DFMO 48 h IC50 in L3.6pl cells; format: cell-based, human
Description: FIG. 19B provides a graphical illustration of the effect of scrambled siRNA vs. ATP13A3 siRNA on relative L3.6pl cell viability % when challenged with a 48 h IC50 dose of DFMO (8 mM) and a rescuing dose of Spd (1 μM).
FIG. 20B provides a graphical illustration of the effect of scrambled siRNA vs. ATP13A3 siRNA on relative L3.6pl cell viability % when challenged with a 48 h IC50 dose of DFMO (8 mM) and a rescuing dose of Spd (1 μM).

[5] = test system: BxPC-3 pancreatic cancer cells; assay: Western blot of ATP13A3 and Cav-1 protein levels with DFMO; format: cell-based, human; settings: 72 h incubation at 37° C.
Description: (§4) FIGS. 9A-B provide graphical illustrations of the modulation of ATP13A3 and Cav-1, respectively, by DFMO and DFMO+Spermidine in L3.6pl human pancreatic cancer cells after 72 h incubation at 37° C. In FIG. 9A ATP13A3 protein levels after 72 h incubation at 37° C. are shown in L3.6pl (top) and Bx-PC3 (bottom) pancreatic cancer cells in the presence of DFMO or DFMO+Spd as analyzed by Western blot. Expression was normalized using β-actin levels. […] Note an increase in Cav-1 levels would stabilize caveolae at the cell surface and reduce the uptake of polyamines via a caveolin dependent pathway. A decrease in Cav-1 levels would increase polyamine import.

[6] = test system: L3.6pl pancreatic cancer cells; assay: as above; format: cell-based, human; settings: 72 h incubation at 37° C.
Description: as §4

[7] = in the presence of aminoguanidine (1 mM)
[8] = with aminoguanidine (AG), read-out: CHO IC50 w/ AG
[9] = without aminoguanidine (AG), read-out: CHO IC50 w/o AG
[10] = with aminoguanidine (AG), read-out: CHO-MG* IC50 w/ AG
[11] = without aminoguanidine (AG), read-out: CHO-MG* IC50 w/o AG
[12] = MALME-3M, 96 h, read-out: 96 h IC50

## N=C(N)NN [Aminoguanidine, aminoguanidine]
[1]; 1 mM, incubated with cells for 24 h prior to compound addition
  toxicity to cells: non-toxic

## CNCCCCNCCCCNCc1cc(CNCCCCNCCCCNC)cc(CNCCCCNCCCCNC)c1 [Compound 6b]
DFMO-treated cells; in vitro
  effectiveness as PTI agent in vitro: effective
PanO2 derived tumors
  proliferation (Ki67 histological stain): reduced proliferation
PanO2 derived tumors; PTI by itself
  cleaved caspase staining (apoptosis): apoptosis is occurring
Amine oxidases
  metabolic stability to amine oxidases: enhanced stability

## NCCCCNCCCCNCc1ccc(CNCCCCNCCCCN)c2ccccc12 [Compound A w/o Me]
MALME-3M cells; [7]
  IC50 ratio (MALME-3/MALME-3M): 71
MALME-3M cells; in the presence of aminoguanidine (1 mM), read-out: MALME-3M IC50
  IC50: 0.018 µM
MALME-3 cells
  IC50: 1.21 µM
CHO cells; with aminoguanidine (AG)
  IC50 ratio w/ AG (CHO-MG*/CHO): >4545
CHO cells; [8]
  IC50: 0.022 µM
CHO cells; without aminoguanidine (AG)
  IC50 ratio w/o AG (CHO-MG*/CHO): 9.5
CHO cells; [9]
  IC50: 5.5 µM
CHO-MG* cells; [10]
  IC50: > 100 µM
CHO-MG* cells; [11]
  IC50: 52.1 µM
Amine oxidases
  metabolic stability to amine oxidases: less selective and less metabolically stable

## CNCCCCNCCCCNCc1ccc(CNCCCCNCCCCNC)c2ccccc12 [Compound A]
Melanoma cell lines; 10 μM
  sensitivity of MALME-3M in NCI 60-cancer cell screen: most sensitive cell line
Melanoma cell lines; 10 μM, MALME-3M, M14, MDA-MB-435, SK-MEL2, SK-MEL-28, SK-MEL-5, UACC-257, UACC-62
  growth of cancer cell lines in NCI 60-cancer cell screen: decreased growth of cancer cell lines
Melanoma cell lines; LOX IMVI (high Cav-1, low Cav-2)
  sensitivity of LOX IMVI melanoma cell line: most resistant melanoma cell line
MALME-3M cells; [12]
  IC50: 0.014 µM
MALME-3M cells; [7]
  IC50 ratio (MALME-3/MALME-3M): 59
MALME-3 cells
  IC50: 0.82 µM
CHO cells; summary bound, also when AG is removed
  CHO-MG*/CHO IC50 ratio (selectivity for CHO cells with active PTS): > 2200
CHO cells; with aminoguanidine (AG)
  IC50 ratio w/ AG (CHO-MG*/CHO): >2272
CHO cells; [8]
  IC50: 0.044 µM
CHO cells; without aminoguanidine (AG)
  IC50 ratio w/o AG (CHO-MG*/CHO): >2564
CHO cells; [9]
  IC50: 0.039 µM
CHO-MG* cells; [10]
  IC50: > 100 µM
CHO-MG* cells; [11]
  IC50: > 100 µM
[1]; 96 h at 37 degrees Celsius, 0.02 μM (MALME-3M cells), 0.8 μM (MALME-3 control cells)
  competition with spermidine for cell entry (percent viability): competes with Spd for cell entry
Amine oxidases
  metabolic stability to amine oxidases: metabolically stable

## CNCCCCNCCCCNCc1c2ccccc2c(CNCCCCNCCCCNC)c2ccccc12 [Compound B]
Melanoma cell lines; 10 μM
  sensitivity of MALME-3M in NCI 60-cancer cell screen: most sensitive cell line
MALME-3M cells; [12]
  IC50: 0.062 µM

## O=C1Nc2ccc(I)cc2/C1=C/c1cc(Br)c(O)c(Br)c1 [GW5074]
L3.6pl cells [2]; in combination with DFMO
  effectiveness against L3.6pl cells: effective
L3.6pl pancreatic tumor
  reduction in tumor size: statistically significant reduction

## difluoromethylornithine [DFMO]
DFMO-treated cells; DFMO dosed at its IC50, Spd 1 μM, PTI not above its IC10, relative to untreated control
  cell viability: 50%
L3.6pl cells [2]; DFMO alone
  effectiveness against L3.6pl cells: effective
[3]
  IC50: < 5000 µM
L3.6pl cells [4]
  IC50: 8000 µM
[5]; Bx-PC3, 48 h IC50 DFMO dose (e.g., 8 mM)
  relative ATP13A3 expression (normalized using β-actin): significant increase
[5]; BxPC-3, in the presence of DFMO
  levels of Cav-1: not dramatically changed
[6]; 48 h IC50 DFMO dose (e.g., 8 mM)
  relative ATP13A3 expression (normalized using β-actin): significant increase
[6]; in the presence of DFMO
  levels of Cav-1: not dramatically changed
PanO2 derived tumors
  proliferation (Ki67 histological stain): reduced proliferation
